Experimental data: patent US20200222474A1, “COMPOSITIONS AND METHODS FOR INCREASING PHYTOCHEMICAL BIOAVAILABLITY AND BIOACTIVITY” (North Carolina State University, priority 2017, published 2020)

System: L. acidophilus NCFM
Experiment: RNA-seq transcriptional analysis of L. acidophilus NCFM growing on plant glycosides
Format: cell-based, Lactobacillus acidophilus
[1] = LBA1481 D-ribose-binding protein precursor, COG G
[2] = LBA1482 Ribose ABC transporter, COG G
[3] = LBA1483 Ribose ABC transporter ATP binding protein, COG G
[4] = LBA1484 D-ribose pyranase, COG G
[5] = LBA1494 Lincomycin-resistance protein, COG GEPR
[6] = LBA1607 Phosphatidylserine decarboxylase precursor, COG I
[7] = LBA1632 NAD-dependent aldehyde dehydrogenase, COG C
[8] = LBA1653 Nicotinamide mononucleotide, COG H
[9] = LBA1684 Putative PTS system IIA component, COG G
[10] = LBA1689 Maltose-6′-phosphate Oucosidase, COG G
[11] = LBA1700 Transcriptional regulator-type, COG K
[12] = LBA1701 Melibiose operon regulatory protein, COG K
[13] = LBA1705 PTS system IIBC component, COG G
[14] = LBA1708 Transcriptional antiterminator, COG K
[15] = LBA1710 Thermostable pullulanase, COG G
[16] = LBA1812 Alpha-glucosidase II, COG G
[17] = LBA1870 Maltose phosphorylase, COG G
[18] = LBA1872 Oligo-1,6-glucosidase, COG G
[19] = LBA1955 Transcription regulator family protein, COG K
[20] = gene LBA0046 (Hypothetical protein)
[21] = gene LBA0149 (Putative nucleotide-binding protein)
[22] = gene LBA0263 (Hypothetical protein)

Question: `O=c1ccc2cc(O[C@@H]3O[C@H](CO)[C@@H](O)[C@H](O)[C@H]3O)c(O)cc2o1` [Esculin] was tested. Which “Transcripts per million (rpm)” value (LBA1468 Beta-galactosidase small subunit, COG G) did it give?
Answer: 38.7 rpm

Question: What about the “Log2 differential normalized TPM ratio compared to glucose” value [1] of the same compound?
Answer: 0.9

Question: What about the “Log2 differential normalized TPM ratio compared to lactose” value [1] of the same compound?
Answer: 0.1

Question: What about the “Transcripts per million (rpm)” value [1] of the same compound?
Answer: 9.2 rpm

Question: What about the “Log2 differential normalized TPM ratio compared to glucose” value [2] of the same compound?
Answer: 1

Question: What about the “Log2 differential normalized TPM ratio compared to lactose” value [2] of the same compound?
Answer: 0

Question: What about the “Transcripts per million (rpm)” value [2] of the same compound?
Answer: 8.1 rpm

Question: What about the “Log2 differential normalized TPM ratio compared to glucose” value [3] of the same compound?
Answer: 0.4

Question: What about the “Log2 differential normalized TPM ratio compared to lactose” value [3] of the same compound?
Answer: −0.7

Question: What about the “Transcripts per million (rpm)” value [3] of the same compound?
Answer: 4.2 rpm

Question: And the “Log2 differential normalized TPM ratio compared to glucose” value [4]?
Answer: 0.4

Question: And the “Log2 differential normalized TPM ratio compared to lactose” value [4]?
Answer: −0.3

Question: What about the “Transcripts per million (rpm)” value [4] of the same compound?
Answer: 5.3 rpm

Question: What about the “Log2 differential normalized TPM ratio compared to glucose” value (LBA1485 Ribokinase, COG G) of the same compound?
Answer: −0.3

Question: What about the “Log2 differential normalized TPM ratio compared to lactose” value (LBA1485 Ribokinase, COG G) of the same compound?
Answer: −1

Question: What about the “Transcripts per million (rpm)” value (LBA1485 Ribokinase, COG G) of the same compound?
Answer: 2.7 rpm

Question: And the “Log2 differential normalized TPM ratio compared to glucose” value [5]?
Answer: 3.6

Question: And the “Log2 differential normalized TPM ratio compared to lactose” value [5]?
Answer: 3.6

Question: What about the “Transcripts per million (rpm)” value [5] of the same compound?
Answer: 69.4 rpm

Question: And the “Log2 differential normalized TPM ratio compared to glucose” value [6]?
Answer: 1.5

Question: What about the “Log2 differential normalized TPM ratio compared to lactose” value [6] of the same compound?
Answer: 0.5

Question: And the “Transcripts per million (rpm)” value [6]?
Answer: 59.5 rpm

Question: And the “Log2 differential normalized TPM ratio compared to glucose” value [7]?
Answer: 3.3

Question: What about the “Log2 differential normalized TPM ratio compared to lactose” value [7] of the same compound?
Answer: 1.5

Question: What about the “Transcripts per million (rpm)” value [7] of the same compound?
Answer: 730.5 rpm

Question: What about the “Log2 differential normalized TPM ratio compared to glucose” value [8] of the same compound?
Answer: 2

Question: And the “Log2 differential normalized TPM ratio compared to lactose” value [8]?
Answer: 1.4

Question: And the “Transcripts per million (rpm)” value [8]?
Answer: 996.7 rpm

Question: And the “Log2 differential normalized TPM ratio compared to glucose” value [9]?
Answer: 2.9

Question: What about the “Log2 differential normalized TPM ratio compared to lactose” value [9] of the same compound?
Answer: 1

Question: What about the “Transcripts per million (rpm)” value [9] of the same compound?
Answer: 98.9 rpm

Question: And the “Log2 differential normalized TPM ratio compared to glucose” value [10]?
Answer: 1.8

Question: And the “Log2 differential normalized TPM ratio compared to lactose” value [10]?
Answer: 0.3

Question: And the “Transcripts per million (rpm)” value [10]?
Answer: 12.7 rpm

Question: And the “Log2 differential normalized TPM ratio compared to glucose” value [11]?
Answer: 1.5

Question: And the “Log2 differential normalized TPM ratio compared to lactose” value [11]?
Answer: 1

Question: What about the “Transcripts per million (rpm)” value [11] of the same compound?
Answer: 61.9 rpm

Question: What about the “Log2 differential normalized TPM ratio compared to glucose” value [12] of the same compound?
Answer: 4.9

Question: What about the “Log2 differential normalized TPM ratio compared to lactose” value [12] of the same compound?
Answer: 4.1

Question: And the “Transcripts per million (rpm)” value [12]?
Answer: 1259.8 rpm

Question: And the “Log2 differential normalized TPM ratio compared to glucose” value [13]?
Answer: 2.2

Question: What about the “Log2 differential normalized TPM ratio compared to lactose” value [13] of the same compound?
Answer: 1.3

Question: What about the “Transcripts per million (rpm)” value [13] of the same compound?
Answer: 15.9 rpm

Question: And the “Log2 differential normalized TPM ratio compared to glucose” value [14]?
Answer: 1.4

Question: What about the “Log2 differential normalized TPM ratio compared to lactose” value [14] of the same compound?
Answer: 0

Question: What about the “Transcripts per million (rpm)” value [14] of the same compound?
Answer: 1.6 rpm

Question: What about the “Log2 differential normalized TPM ratio compared to glucose” value [15] of the same compound?
Answer: 0.3

Question: And the “Log2 differential normalized TPM ratio compared to lactose” value [15]?
Answer: −0.1

Question: What about the “Transcripts per million (rpm)” value [15] of the same compound?
Answer: 9.6 rpm

Question: What about the “Log2 differential normalized TPM ratio compared to glucose” value (LBA1723 Transposase, COG L) of the same compound?
Answer: 0

Question: And the “Log2 differential normalized TPM ratio compared to lactose” value (LBA1723 Transposase, COG L)?
Answer: −0.2

Question: What about the “Transcripts per million (rpm)” value (LBA1723 Transposase, COG L) of the same compound?
Answer: 55.8 rpm

Question: And the “Log2 differential normalized TPM ratio compared to glucose” value [16]?
Answer: 2.8

Question: And the “Log2 differential normalized TPM ratio compared to lactose” value [16]?
Answer: 0.8

Question: And the “Transcripts per million (rpm)” value [16]?
Answer: 120.6 rpm

Question: And the “Log2 differential normalized TPM ratio compared to glucose” value [17]?
Answer: 0

Question: And the “Log2 differential normalized TPM ratio compared to lactose” value [17]?
Answer: 1.2

Question: And the “Transcripts per million (rpm)” value [17]?
Answer: 109.2 rpm

Question: And the “Log2 differential normalized TPM ratio compared to glucose” value (LBA1871 Neopullulanase, COG G)?
Answer: 2.1

Question: And the “Log2 differential normalized TPM ratio compared to lactose” value (LBA1871 Neopullulanase, COG G)?
Answer: 1.4

Question: And the “Transcripts per million (rpm)” value (LBA1871 Neopullulanase, COG G)?
Answer: 12.2 rpm

Question: And the “Log2 differential normalized TPM ratio compared to glucose” value [18]?
Answer: 1

Question: And the “Log2 differential normalized TPM ratio compared to lactose” value [18]?
Answer: 0.6

Question: And the “Transcripts per million (rpm)” value [18]?
Answer: 6.3 rpm

Question: What about the “Log2 differential normalized TPM ratio compared to glucose” value (LBA1873 Acetate kinase, COG C) of the same compound?
Answer: 0.8

Question: What about the “Log2 differential normalized TPM ratio compared to lactose” value (LBA1873 Acetate kinase, COG C) of the same compound?
Answer: −0.5

Question: And the “Transcripts per million (rpm)” value (LBA1873 Acetate kinase, COG C)?
Answer: 6.4 rpm

Question: And the “Log2 differential normalized TPM ratio compared to glucose” value (LBA1878 Glycerol kinase, COG C)?
Answer: 2.1

Question: And the “Log2 differential normalized TPM ratio compared to lactose” value (LBA1878 Glycerol kinase, COG C)?
Answer: 2

Question: And the “Transcripts per million (rpm)” value (LBA1878 Glycerol kinase, COG C)?
Answer: 38 rpm

Question: What about the “Log2 differential normalized TPM ratio compared to glucose” value [19] of the same compound?
Answer: −1.3

Question: And the “Log2 differential normalized TPM ratio compared to lactose” value [19]?
Answer: −0.9

Question: What about the “Transcripts per million (rpm)” value [19] of the same compound?
Answer: 218.2 rpm

Question: What about the “number of up-regulated genes” value (RNA-seq, compared to glucose) of the same compound?
Answer: 87 genes

Question: And the “number of uniquely induced genes” value (RNA-seq, up-regulated genes not shared with the other PGs)?
Answer: 35

Question: What about the “Log2 differential normalized TPM ratio compared to glucose” value [20] of the same compound?
Answer: 2.2

Question: What about the “Log2 differential normalized TPM ratio compared to lactose” value [20] of the same compound?
Answer: 1.5

Question: And the “Transcripts per million (rpm)” value [20]?
Answer: 1439.6 rpm

Question: And the “Log2 differential normalized TPM ratio compared to glucose” value [21]?
Answer: 1.4

Question: And the “Log2 differential normalized TPM ratio compared to lactose” value [21]?
Answer: 0.6

Question: What about the “Transcripts per million (rpm)” value [21] of the same compound?
Answer: 1325.7 rpm

Question: What about the “Log2 differential normalized TPM ratio compared to glucose” value [22] of the same compound?
Answer: 1.8

Question: And the “Log2 differential normalized TPM ratio compared to lactose” value [22]?
Answer: 1.1

Question: What about the “Transcripts per million (rpm)” value [22] of the same compound?
Answer: 59.9 rpm
